From patent publication EP0550016A1, “Novel quinolone carboxylic acid derivatives and processes for preparing same” (KOREA RESEARCH INSTITUTE OF CHEMICAL TECHNOLOGY, priority 1991, dated 1993) come the findings set out here.

Values after ≈ are worked out from the molar mass of the structure shown. Like-named read-outs stand apart in the source and are kept apart here.

The test system of data set [1] is Pseudomonas aeruginosa 9027. In words: In vitro anti-bacterial activity test (MIC, two-fold dilution method) against the standard strains. In kind it is cell-based. The note with it: Table 1 strain 12: Pseudomonas aeruginosa 9027.
For data set [2], the system named is Streptococcus pyogenes 77 A. Described as above. In kind it is cell-based. As to conditions: Table 1 strain 2: Streptococcus pyogenes 77 A; read-out: MIC.
Data set [3] deals with Streptococcus faecium MD 8b. Described as above. In kind it is cell-based. As to conditions: Enterococcus faecium, MD8B; Table 1 strain 3: Streptococcus faecium MD 8b; read-out: MIC.
A further data set deals with Escherichia coli OTEM. The description is as above. It is filed as cell-based. The note with it: Table 1 strain 10: Escherichia coli OTEM.
Another data set deals with P. mirabilis. The data set is described as follows: Preventive effect against the systemic infection. It is filed as in vivo. The note with it: Proteus mirabilis, 168 h, NMRI mice, survival on day 7, read-out: ED₅₀. The procedure: (§1) 10 fold of the pathogen which leads to 100% lethality were injected intraperitoneally to male and female NMRI mice weighing 18 to 20g. Immediately and after 4 hours, the dose of test compounds which was determined by two-fold serial dilution method was administered orally or subcutaneously; and on day 7, the effectiveness was evaluated in terms of ED₅₀ calculated from the number of survived mice by the probit analysis.

Data set [4] deals with Escherichia coli DC 0. In words: In vitro anti-bacterial activity test (MIC, two-fold dilution method) against the standard strains. In kind it is cell-based. The note with it: DC0; Table 1 strain 7: Escherichia coli DC 0.
The subject of data set [5] is Staphylococcus aureus 285. Described as above. In kind it is cell-based. The note with it: Table 1 strain 5: Staphylococcus aureus 285; read-out: MIC.
Data set [6] relates to Pseudomonas aeruginosa 1771. The description is as above. In kind it is cell-based. The note with it: Table 1 strain 14: Pseudomonas aeruginosa 1771.
For another data set, the system named is Salmonella typhimurium. The description is as above. In kind it is cell-based. The note with it: Salmonella enterica; Table 1 strain 16: Salmonella typhimurium.
Data set [7] deals with Staphylococcus aureus SG 511. The description is as above. It is filed as cell-based. As to conditions: SG511; Table 1 strain 4: Staphylococcus aureus SG 511.
Another data set concerns Escherichia coli 1507 E. The data set is described as above. It is filed as cell-based. As to conditions: Table 1 strain 11: Escherichia coli 1507 E.
Data set [8] deals with Enterobacter cloacae 1321 E. The data set is described as above. The note with it: Table 1 strain 20: Enterobacter cloacae 1321 E. It is filed as cell-based.
Data set [9] relates to Enterobacter cloacae P 99. Described as above. It is filed as cell-based. The note with it: P99; Table 1 strain 19: Enterobacter cloacae P 99.
The test system of data set [10] is Pseudomonas aeruginosa 1771 M. The data set is described as above. It is filed as cell-based. As to conditions: Table 1 strain 15: Pseudomonas aeruginosa 1771 M.
The next data set deals with Escherichia coli DC 2. Described as above. It is filed as cell-based. The note with it: DC2.
The subject of data set [11] is Streptococcus pyogenes 308 A. The data set is described as above. In kind it is cell-based. The note with it: Table 1 strain 1: Streptococcus pyogenes 308 A.
The subject of data set [12] is Klebsiella aerogenes 1082 E. The description is as above. It is filed as cell-based. The note with it: Table 1 strain 17: Klebsiella aerogenes 1082 E.
Data set [13] has as its system Escherichia coli DC 0. The data set is described as above. It is filed as cell-based. As to conditions: DC0; Table 1 strain 8: Escherichia coli DC 0.
The test system of data set [14] is Klebsiella aerogenes 1522 E. The description is as above. In kind it is cell-based. As to conditions: Table 1 strain 18: Klebsiella aerogenes 1522 E.
Data set [15] relates to Staphylococcus aureus 503. The data set is described as above. In kind it is cell-based. As to conditions: Table 1 strain 6: Staphylococcus aureus 503; read-out: MIC.
Data set [16] relates to Pseudomonas aeruginosa 1592 E. The data set is described as above. In kind it is cell-based. As to conditions: Table 1 strain 13: Pseudomonas aeruginosa 1592 E.
A further data set can be described thus: Acute Toxicity Test. The note with it: mouse, in vivo, female ICR mice, day 14, read-out: Acute Toxicity(LD₅₀). The method, then:
Test compounds were administered to female ICR mice weighing 20 to 25g and on day 14, LD₅₀ was calculated from the number of survived mice by the probit analysis.

The next data set has as its system S. aureus 17740. The data set is described as follows: Preventive effect against the systemic infection. The note with it: Staphylococcus aureus, 168 h, NMRI mice, survival on day 7, read-out: ED₅₀. In kind it is in vivo. The method, then:
as §1

[17] abbreviates: Table 1 strain 9: Escherichia coli DC 2, read-out: MIC.

As usually defined, the MIC is the lowest concentration that inhibits growth of the organism. As for `NC1CC12CCN(c1c(F)cc3c(=O)c(C(=O)O)cn(C4CC4)c3c1Cl)C2` (centres unmarked) [Example 3, 7-(1-amino-5-azaspiro[2,4]heptane-5-yl)-8-chloro-1-cyclopropyl-6-fluoro-1,4-dihydro-4-oxoquinoline-3-carboxylic acid], the MIC was 0.781 µg/mL (≈ 1.99 µM) in [1]; 0.025 µg/mL (≈ 0.0638 µM) in data set [2]; 0.391 µg/mL (≈ 0.998 µM) in data set [3]; 0.007 µg/mL (≈ 0.0179 µM) in the data set on Escherichia coli OTEM; < 0.002 µg/mL against Escherichia coli DC 0 [4]; 0.007 µg/mL (≈ 0.0179 µM) in [5]. For the same compound, the MIC in data set [6] was 0.781 µg/mL (≈ 1.99 µM); against Salmonella typhimurium it was 0.004 µg/mL (≈ 0.0102 µM); in data set [7] it was 0.025 µg/mL (≈ 0.0638 µM); in the data set with Escherichia coli 1507 E, 0.025 µg/mL (≈ 0.0638 µM); in [8], < 0.002 µg/mL; in [9] it was 0.004 µg/mL (≈ 0.0102 µM). Besides, the MIC in [10] was 0.195 µg/mL (≈ 0.498 µM); in the data set on Escherichia coli DC 2 (setting [17]) it was 0.025 µg/mL (≈ 0.0638 µM); in [11], 0.098 µg/mL (≈ 0.25 µM); in [12] it was < 0.002 µg/mL; against Escherichia coli DC 0 [13] it was 0.195 µg/mL (≈ 0.498 µM); in data set [14], 0.004 µg/mL (≈ 0.0102 µM). Moreover, the MIC is 0.004 µg/mL (≈ 0.0102 µM) in data set [15] and 0.781 µg/mL (≈ 1.99 µM) in [16]. The ED50 was found to be 2.58 mg/kg with P. mirabilis (Oral Administration) and 0.63 mg/kg in the data set with P. mirabilis (sc, Subcutaneous Injection).
For `C[C@H]1COc2c(N3CCC4(CC4N)C3)c(F)cc3c(=O)c(C(=O)O)cn1c23` (some centres unmarked) [Example 13], the MIC in data set [1] was 1.56 µg/mL (≈ 4.19 µM); in data set [2] it was 0.195 µg/mL (≈ 0.522 µM); in data set [3], 0.195 µg/mL (≈ 0.522 µM); in the data set on Escherichia coli OTEM, 0.049 µg/mL (≈ 0.131 µM); in the data set with Escherichia coli DC 0 [4] it was 0.025 µg/mL (≈ 0.067 µM); in [5], 0.098 µg/mL (≈ 0.262 µM). Further, the MIC was 1.56 µg/mL (≈ 4.19 µM) in data set [6]; 0.049 µg/mL (≈ 0.131 µM) against Salmonella typhimurium; 0.098 µg/mL (≈ 0.262 µM) in data set [7]; 0.098 µg/mL (≈ 0.262 µM) in the data set on Escherichia coli 1507 E; 0.049 µg/mL (≈ 0.131 µM) in data set [8]; 0.049 µg/mL (≈ 0.131 µM) in data set [9]. Besides, the MIC in [10] is 0.391 µg/mL (≈ 1.05 µM); with Escherichia coli DC 2 (setting [17]) it was 0.098 µg/mL (≈ 0.262 µM); in [11], 0.391 µg/mL (≈ 1.05 µM); in [12], 0.004 µg/mL (≈ 0.0107 µM); against Escherichia coli DC 0 [13], 0.391 µg/mL (≈ 1.05 µM); in data set [14], 0.098 µg/mL (≈ 0.262 µM). Further, the values for the MIC in data set [15] and in data set [16] were 0.049 µg/mL (≈ 0.131 µM) and 1.56 µg/mL (≈ 4.19 µM), respectively. The LD50 at 336 h in “Acute Toxicity Test” (ip, Intraperitoneal Injection) was 620 mg/kg; in “Acute Toxicity Test” (Oral Administration), 4000 mg/kg.
For the compound `CC(O)C(=O)O.NC1CC12CCN(c1c(F)cc3c(=O)c(C(=O)O)cn(C4CC4)c3c1F)C2` (centres unmarked) [Example 2, 7-(1-amino-5-azaspiro[2,4]heptane-5-yl)-1-cyclopropyl-6,8-difluoro-1,4-dihydro-4-oxoquinoline-3-carboxylic acid lactate], the minimal inhibitory concentration (MIC) in [1] is 0.781 µg/mL; in data set [2], 0.098 µg/mL; in data set [3] it was 0.098 µg/mL; against Escherichia coli OTEM, 0.025 µg/mL; with Escherichia coli DC 0 [4], 0.004 µg/mL; in data set [5], 0.025 µg/mL. Further, the MIC is 0.781 µg/mL in data set [6]; 0.013 µg/mL with Salmonella typhimurium; 0.025 µg/mL in data set [7]; 0.025 µg/mL with Escherichia coli 1507 E; 0.007 µg/mL in data set [8]; 0.013 µg/mL in data set [9]. In addition, the MIC in [10] was determined as 0.098 µg/mL; in the data set on Escherichia coli DC 2 (Escherichia coli), 0.049 µg/mL; in [11], 0.195 µg/mL; in data set [12], 0.013 µg/mL; in the data set with Escherichia coli DC 0 [13] it was 0.195 µg/mL; in data set [14], 0.025 µg/mL. In addition, the MIC turned out to be 0.025 µg/mL in data set [15] and 0.781 µg/mL in data set [16]. Moreover, the ED50 was 49.7 mg/kg in the data set with S. aureus 17740 (Oral Administration) and 97.6 mg/kg in the data set on S. aureus 17740 (sc, Subcutaneous Injection). The LD50 in “Acute Toxicity Test” (ip, Intraperitoneal Injection) worked out at 580 mg/kg; in the data set “Acute Toxicity Test” (Oral Administration) it was 3800 mg/kg.
